The values that follow come from patent US7217831B2 (priority 2001, dated 2007).

The subject of assay [1] is Helicoverpa armigera larvae. Description: Glasshouse trial on geranium seedlings, racemic and isomeric C1 (Example 20). The assay is classed as in vivo. The note with it: Trial 1; 25 mM dose sprayed on geranium.
The subject of the next assay is Helicoverpa spp. larvae. The assay can be described thus: Field trial, commercial cotton crop, Kununurra (Example 19). The assay is classed as in vivo, Helicoverpa armigera. The note with it: C1 plus EDTA 1.0 kg/ha each.

`CC(C)[C@H](NCP(=O)(O)O)C(=O)O` [L-C1, N-phosphonomethyl valine]: in assay [1], the “Estimated leaf damage (%) at 7 DAA” value is 35% and the “Mean number of larvae/leaf at 7 DAA” value was found to be 2.3.
In the case of `O=C(O)CN(CCN(CC(=O)O)CC(=O)O)CC(=O)O` [EDTA, ethylenediaminetetraacetic acid], the “Mean number TLVA*/10 Terminals, 3 DAA” value in the assay with Helicoverpa spp. larvae (3 days after application, C1 2.0 kg/ha, EDTA 2.0 kg/ha) is reported as 6.0. Besides, in the assay on Helicoverpa spp. larvae (EDTA alone 2.0 kg/ha), the “efficacy against Helicoverpa spp. infesting cotton (in words)” value is reported as “no apparent influence on larval survival”. Besides, the “Mean number TLVA*/10 Terminals, −1 DAA” value with Helicoverpa spp. larvae (pre-application count, C1 2.0 kg/ha, EDTA 2.0 kg/ha) turned out to be 0.0.
For the compound `CC(C)[C@H](NCP(=O)(O)O)C(=O)O` [D-C1, N-phosphonomethyl valine], in assay [1], the “Estimated leaf damage (%) at 7 DAA” value is on record as 55% and the “Mean number of larvae/leaf at 7 DAA” value is reported as 3.5.
